Results as given in US7414134B2, “B1 bradykinin receptor antagonists” (Amgen Inc., priority 2004, dated 2008).
Ends that are not written are not given here.

Tests used:
[1] = cited from earlier work
[2] = target: T1, hB1 receptor (Homo sapiens, UniProt P46663); assay: In vitro assay of human B1 receptor function using calcium flux (aequorin); type: cell-based; settings: CHO D-/hB1/Aequorin cells, agonist 20 nM des-Arg10-Kallidin (EC80); read-out: binding IC50's to hB1 receptor function
T1 construct: expressed in transfected cells; host or cells: CHO D- cells stably expressing hB1 and aequorin
T1 sequence (P46663 1-353): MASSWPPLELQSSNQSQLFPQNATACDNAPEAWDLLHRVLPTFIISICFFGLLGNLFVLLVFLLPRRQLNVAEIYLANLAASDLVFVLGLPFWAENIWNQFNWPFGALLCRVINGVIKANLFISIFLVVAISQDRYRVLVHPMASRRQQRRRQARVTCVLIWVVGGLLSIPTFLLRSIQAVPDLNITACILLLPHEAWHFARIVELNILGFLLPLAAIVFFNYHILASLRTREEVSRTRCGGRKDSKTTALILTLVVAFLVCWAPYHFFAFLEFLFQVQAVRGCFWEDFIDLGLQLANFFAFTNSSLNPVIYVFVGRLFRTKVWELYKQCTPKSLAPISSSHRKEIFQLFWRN
Text: Activation of the Gq linked B1 receptor results in an increase in intracellular calcium. The calcium sensitive photoprotein aequorin can, therefore, be used as an indicator of B1 receptor activation. Aequorin is a 21-kDa photoprotein that forms a bioluminescent complex when linked to the chromophore cofactor coelenterazine. Following the binding of calcium to this complex, an oxidation reaction of coelenterazine results in the production of apoaequorin, coelenteramide, CO2, and light that can be detected by conventional luminometry.
A stable CHO D-/hB1/Aequorin cell line was established and the cells were maintained in suspension in spinner bottles containing a 1:1 ratio of DMEM and HAM F12 (Gibco 11765-047), high glucose (Gibco 11965-084), 10% Heat Inactivated Dialyzed serum (Gibco 26300-061), 1× Non-Essential Amino Acids (Gibco 11140-050), 1× Glutamine-Pen-Strep (Gibco 10378-016), and Hygromycin, 300 μg/mL (Roche 843555). […]
Media was removed from the wells and replaced with 60 μL of serum free HAM's F12 with 30 mM HEPES (pH 7.5) and 15 μM coelenterazine (Coelenterazine h Luciferin #90608 from Assay Designs). […] The hB1 agonist, des-Arg10-Kallidin, was added to the cell plate and another 12 images were recorded to determine the IC50 of the antagonist(s).

| IC50 [2] | Compound | half-life of BK in plasma [1] |
| --- | --- | --- |
|  | RPPGFSPFR [BK, Bradykinin] | approximately 17 seconds |
| < 1000 nM | Cc1ccc(S(=O)(=O)N[C@H](Cc2cn([C@@H]3CCOc4cc(CN5CCC(F)CC5)ccc43)nn2)C(N)=O)cc1 [Example 7, (R)-3-(1-((R)-7-((4-fluoropiperidin-1-yl)methyl)-3,4-dihydro-2H-chromen-4-yl)-1H-1,2,3-triazol-4-yl)-2-(4-methylphenylsulfonamido)propanamide] |  |
